Values quoted from earlier work, collected in patent publication US6806373B2, “Process for preparing leflunomide form I” (Teva Pharmaceutical Industries Ltd., priority 1999, dated 2004).

Tests used:
[1] = solid form, according to AU-A-78870/98
[2] = according to AU-A-78870/98
[3] = water or mixtures of water and C1-C4 alcohols, acetone or methyl ethyl ketone, even with heating (<40° C.)

SMILES	kinetically stable up to (temperature) [1]	dissolution in water compared with Form I [2]	solubility in suspension solvents [3]
Cc1oncc1C(=O)Nc1ccc(C(F)(F)F)cc1 [Form II]	up to 40 °C	more readily dissolves in water than does Form I	–
Cc1oncc1C(=O)Nc1ccc(C(F)(F)F)cc1 [leflunomide]	–	–	poorly soluble
